Assay results published in publication PMC11968281, “eIF3d and eIF4G2 mediate an alternative mechanism of cap-dependent but eIF4E-independent translation initiation” (The Journal of Biological Chemistry, 2025).

Biological target: T1, eIF3d and eIF4G2 complex (Homo sapiens, UniProt O15371)
T1 construct: both recombinant from E. coli, 6xHis tags cut by TEV; full-length human eIF4G2; with Eukaryotic translation initiation factor 4 gamma 2
Test: fluorescence anisotropy competition with fluorescein-labelled m7G-capped […]'UTR RNA
Format: binding
Conditions: 20 mM Hepes-KOH pH 7.5, 100 mM KCl, 1 mM MgCl2, 25 C, cap analog competing with 10 nM capped CD101, ITGAE or ACTB RNA, m7GDP concentration not given, ligand site assigned to the eIF3d c

T1 sequence (O15371 whole entry): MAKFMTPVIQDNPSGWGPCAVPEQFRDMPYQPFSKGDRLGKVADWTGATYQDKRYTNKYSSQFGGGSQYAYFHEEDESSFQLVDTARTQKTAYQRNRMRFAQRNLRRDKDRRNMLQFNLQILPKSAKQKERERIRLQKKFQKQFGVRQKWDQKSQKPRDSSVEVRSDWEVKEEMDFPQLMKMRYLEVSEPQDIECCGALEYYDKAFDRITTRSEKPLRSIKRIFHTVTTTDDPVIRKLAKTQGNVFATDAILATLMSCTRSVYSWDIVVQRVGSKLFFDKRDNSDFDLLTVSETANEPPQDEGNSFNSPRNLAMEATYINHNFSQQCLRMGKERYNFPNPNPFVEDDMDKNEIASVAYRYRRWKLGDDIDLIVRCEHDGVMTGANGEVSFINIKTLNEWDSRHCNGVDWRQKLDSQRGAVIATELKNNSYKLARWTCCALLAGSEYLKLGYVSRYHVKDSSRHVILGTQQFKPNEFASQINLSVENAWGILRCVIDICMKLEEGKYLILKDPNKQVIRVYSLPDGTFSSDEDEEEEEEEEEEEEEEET
T1 sequence (P78344 whole entry partner): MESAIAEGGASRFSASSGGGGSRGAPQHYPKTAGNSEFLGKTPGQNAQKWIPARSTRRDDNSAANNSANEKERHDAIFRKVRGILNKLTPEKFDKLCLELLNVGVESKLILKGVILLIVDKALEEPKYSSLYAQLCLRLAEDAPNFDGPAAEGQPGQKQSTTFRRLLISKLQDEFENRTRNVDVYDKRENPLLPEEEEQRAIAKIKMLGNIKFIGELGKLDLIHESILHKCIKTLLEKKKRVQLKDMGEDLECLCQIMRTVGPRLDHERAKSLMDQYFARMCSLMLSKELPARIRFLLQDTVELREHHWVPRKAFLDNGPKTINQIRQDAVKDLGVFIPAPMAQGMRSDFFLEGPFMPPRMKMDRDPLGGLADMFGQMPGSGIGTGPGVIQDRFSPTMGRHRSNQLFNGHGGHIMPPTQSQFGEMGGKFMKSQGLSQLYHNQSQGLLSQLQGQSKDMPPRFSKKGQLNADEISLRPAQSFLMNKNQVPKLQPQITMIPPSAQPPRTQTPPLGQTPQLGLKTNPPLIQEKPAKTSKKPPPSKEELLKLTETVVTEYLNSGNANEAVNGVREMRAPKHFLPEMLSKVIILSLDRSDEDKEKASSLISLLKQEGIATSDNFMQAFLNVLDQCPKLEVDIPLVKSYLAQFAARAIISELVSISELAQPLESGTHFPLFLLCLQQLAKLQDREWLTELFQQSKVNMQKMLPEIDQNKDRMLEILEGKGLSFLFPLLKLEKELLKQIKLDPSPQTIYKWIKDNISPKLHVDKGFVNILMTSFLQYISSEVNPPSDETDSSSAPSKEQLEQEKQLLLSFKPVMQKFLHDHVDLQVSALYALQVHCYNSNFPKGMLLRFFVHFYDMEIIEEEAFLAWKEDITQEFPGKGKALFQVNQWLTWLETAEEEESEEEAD

Question: For `C[n+]1cn([C@@H]2O[C@H](COP(=O)(O)OP(=O)(O)O)[C@@H](O)[C@H]2O)c2nc(N)[nH]c(=O)c21` [m^7GDP], which “fluorescence anisotropy competition with fluorescein-labelled m7G-capped 5'UTR R” value is on record?
Answer: reduction in the binding affinity of the eIF3d/eIF4G2 complex to the m^7G cap was also observed
